Laboratory results published in patent US9550811B2, “Peptide scaffold design” (BIONOR IMMUNO AS, priority 2010, dated 2017).

How the values were obtained:
Assay in all cases: REVEAL binding assay
Settings in all cases: score as percentage of the signal generated by the positive control peptide
HLA-A1 = test system: HLA-A1
HLA-A24 = test system: HLA-A24
HLA-A29 = test system: HLA-A29
From the text: (§5) The REVEAL™ binding assay determined the ability of each candidate peptide to bind to one or more MHC class I alleles and stabilizing the MHC-peptide complex. […] Detection is based on the presence or absence of the native conformation of the MHC-peptide complex. Each peptide is given a score relative to the positive control peptide, which is a known T cell epitope.

HLA-B8 = test system: HLA-B8
From the text: as §5

HLA-B14 = test system: HLA-B14
HLA-B15 = test system: HLA-B15
HLA-A11 = HLA-A11 (Homo sapiens, UniProt P04439, A114D/F33Y/S129P)
Protocol: (§1) Binding properties to HLA for the ninemers listed in table 6 were tested for the following HLA-classes:
(§2) HLA-A1, HLA-A2, HLA-A3, HLA-A11, HLA-A24, HLA-A29, HLA-B7, HLA-B8, HLA-B14, HLA-B15, HLA-B27, HLA-B35, HLA-B40.
(§3) The peptides were synthesized as a Prospector PEPscreen®: Custom Peptide Library. […] Quality control by MALDI-TOF Mass Spectrometry was carried out on 100% of samples.
(§4) The REVEAL™ binding assay determined the ability of each candidate peptide to bind to one or more MHC class I alleles and stabilizing the MHC-peptide complex. By comparing the binding to that of high and intermediate affinity T cell epitopes, the most likely immunogenic peptides in a protein sequence can be identified. Detection is based on the presence or absence of the native conformation of the MHC-peptide complex. Each peptide is given a score relative to the positive control peptide, which is a known T cell epitope.

HLA-A2 = HLA-A2 (Homo sapiens, UniProt P04439, D140Y/D185E/D98H/E176V/E277Q/G131W/G231S/I119V/I121R/I166T/I218V/N151K/N90K/P208A/P217A/Q86G/Q94H/R138H/R169H)
Protocol: as §1, §2, §3, §4

HLA-A3 = HLA-A3 (Homo sapiens, UniProt P04439)
Chain of HLA-A3 (P04439 25-299): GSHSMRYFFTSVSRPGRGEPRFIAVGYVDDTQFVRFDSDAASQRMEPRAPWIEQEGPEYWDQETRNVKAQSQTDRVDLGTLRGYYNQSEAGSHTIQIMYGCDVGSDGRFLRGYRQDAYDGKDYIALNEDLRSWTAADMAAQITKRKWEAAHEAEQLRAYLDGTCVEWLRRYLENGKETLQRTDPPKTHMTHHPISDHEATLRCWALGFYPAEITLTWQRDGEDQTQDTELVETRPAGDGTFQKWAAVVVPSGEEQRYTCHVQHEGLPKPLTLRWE
Chain of HLA-A3 (P61769 21-119, further chain): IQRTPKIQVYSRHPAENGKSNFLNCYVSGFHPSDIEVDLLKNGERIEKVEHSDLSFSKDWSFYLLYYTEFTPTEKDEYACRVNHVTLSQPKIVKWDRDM
Protocol: as §1, §2, §3, §4

HLA-B27 = HLA-B27 (Homo sapiens, UniProt P01889, D138H/D201E/E176V/E204Q/G107R/H137Y/K202T/N104T/N87E/Q56L/Q94K/R106L/R155S/R180L/S101D/S121N/S48T/Y140D/Y33H/Y91C)
Protocol: as §1, §2, §3, §4

HLA-B7 = HLA-B7 (Homo sapiens, UniProt P01889)
Chain of HLA-B7 (P61769 21-119): as the sequence (P61769 21-119, further chain) above
Chain of HLA-B7 (P01889 25-299): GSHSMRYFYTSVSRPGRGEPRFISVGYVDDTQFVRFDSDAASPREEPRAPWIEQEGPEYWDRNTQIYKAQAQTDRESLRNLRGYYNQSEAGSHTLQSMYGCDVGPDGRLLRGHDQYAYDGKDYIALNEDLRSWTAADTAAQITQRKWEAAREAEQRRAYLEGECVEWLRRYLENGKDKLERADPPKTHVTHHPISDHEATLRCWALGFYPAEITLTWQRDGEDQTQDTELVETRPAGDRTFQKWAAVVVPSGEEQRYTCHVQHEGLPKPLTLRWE
Protocol: as §1, §2, §3, §4

HLA-B35 = test system: HLA-B35
From the text: as §5

HLA-B40 = test system: HLA-B40
Protocol: as §1, §2
The peptides were synthesized as a Prospector PEPscreen®: Custom Peptide Library. Peptides 8-15 amino acids in length were synthesized in 0.5-2 mg quantities with high average purity. Quality control by MALDI-TOF Mass Spectrometry was carried out on 100% of samples.
as §4, with “epitope. The score of the test peptide is reported quantitatively as a percentage of the signal generated by the positive control peptide, and the peptide is indicated as having a putative pass or fail result. Assay performance is confirmed by including an intermediate control peptide that is known to bind with weaker affinity to the allele under investigation.” for “epitope.”

Sequence | REVEAL binding score, HLA-type A1 (HLA-A1) | REVEAL binding score, HLA-type A24 (HLA-A24) | REVEAL binding score, HLA-type A29 (HLA-A29) | REVEAL binding score, HLA-type B8 (HLA-B8) | REVEAL binding score, HLA-type B14 (HLA-B14) | REVEAL binding score, HLA-type B15 (HLA-B15) | REVEAL binding score, HLA-type A11 (HLA-A11) | REVEAL binding score, HLA-type A2 (HLA-A2) | REVEAL binding score, HLA-type A3 (HLA-A3) | REVEAL binding score, HLA-type B27 (HLA-B27) | REVEAL binding score, HLA-type B7 (HLA-B7) | REVEAL binding score, HLA-type B35 (HLA-B35) | REVEAL binding score, HLA-type B40 (HLA-B40)
ITFSIYLIV | 9.89% | 0.77% | 24.10% | 11.38% | 1.53% | 6.68% | 5.31% | 43.08% | 1.66% | 4.79% | 4.32% | 12.30% | 78.84%
GYIPLVGAP | 15.62% | 0.80% | 29.74% | 15.94% | 0.47% | 11.02% | 3.84% | 7.28% | 3.46% | 1.76% | 1.37% | 10.35% | 72.32%
GNLPGCSFS | 6.44% | 1.13% | 13.48% | 8.71% | 0.81% | 3.96% | 2.41% | 6.11% | 3.54% | 13.44% | 1.84% | 4.80% | 80.68%
RVIAHGLRL | 11.60% | 0.79% | 23.22% | 12.60% | 0.42% | 106.77% | 17.75% | 18.68% | 13.32% | 15.57% | 102.96% | 1.43% | 24.08%
RALAHGVRV | 20.77% | 0.84% | 29.73% | 18.08% | 0.46% | 11.84% | 4.45% | 8.69% | 2.51% | 6.37% | 2.55% | 6.07% | 70.26%
GYLPAVGAP | 12.04% | 0.35% | 26.03% | 17.38% | 0.11% | 10.50% | 4.25% | 5.87% | 2.90% | 0.73% | 3.10% | 1.84% | 27.82%
NLPGCSFSI | 13.15% | 85.91% | 22.34% | 9.89% | 0.36% | 3.11% | 3.47% | 47.28% | 8.15% | 3.37% | 1.54% | 5.31% | 60.68%
DLMGYIPLV | 16.67% | 1.14% | 25.64% | 22.65% | 0.23% | 7.67% | 5.01% | 103.34% | 4.66% | 1.05% | 4.84% | 2.49% | 39.33%
GGQIIGGNY | 24.04% | 0.39% | 14.38% | 10.52% | 0.25% | 90.62% | 2.40% | 7.06% | 2.23% | 0.24% | 1.09% | 2.22% | 15.03%
VIRVIAHGL | 18.66% | 0.28% | 27.12% | 32.81% | 0.55% | 9.64% | 4.54% | 8.60% | 4.29% | 1.16% | 29.93% | 2.51% | 52.64%
GPRLGVRAT | 13.85% | 0.05% | 12.66% | 13.18% | 0.94% | 10.01% |  |  |  |  |  | 1.83% | 19.95%
